# According to patent US20040043462A1, “Chamber for in vivo screening of angiogenesis and tumor growth modulating compounds” (priority 2003, published 2004):
# “Also recorded” adds a separate entry of the source.
# Legend:
# [1] = test system: tumor cells embedded in fibrin gel (T-ZC); assay: Tumor cell-containing chambers (T-ZC) implanted in animals, systemic SUGEN 5416 treatment; assay type: in vivo
# Protocol: A tumor cell chamber, or tumor Z-chamber (T-ZC) is prepared by adding tumor cells to the fibrinogen solution before adding the solution to the chamber. The tumor cells are embedded in fibrin gel. Implantation is accomplished by making two 2 cm long incisions on the backs of the animals, followed by making blunt dissections on both sides to establish a pocket in the subcutaneous space. The chambers are inserted into these pockets. Clips are used to close the incision in rats and sutures are used for mice. A topical antibiotic, such as that sold under the registered trademark NEOSPORIN® by Glaxo-Wellcome, Inc., is applied over the incision. To harvest the chambers, a long incision is made on the backs of the animals. The surrounding fascia is observed and noted. The chambers are pushed from outside the animal and pulled out. Pictures are taken at this stage to observe differences, if any, between tissue within and encompassing the chamber and the surrounding tissue. The mesh and issue agglomerated thereon are cut from the chamber with scalpel (preferably a #11 blade) and then processed in accordance with a desired analysis approach.
# [2] = test system: wound healing response (granulation tissue, neovascularization) in F-ZC; assay: Fibrin Z-chamber (F-ZC) wound healing assay, systemic SU5416 treatment; assay type: in vivo, Fischer 344 rats; conditions: for residual D-dimer retention: SU5416 vs control (FIG. 16); for body weight loss: SU5416 20 mg/kg, F-ZC implantation, 10-12 days, vs control (FIG. 13)
# Protocol: (§1) Schedule and Dose of Drug Administration.
# Fibrin Z-Chambers (F-ZC): In accordance with the present invention, F-ZC were employed in a fibrin gel based in vivo assay. In F-ZC, fibrinogen and thrombin are added to a dual porous chamber through a port and chambers are then implanted in the subcutaneous tissue of the rats and harvested at day 12 post-implantation to assess the wound healing response generated due to presence of fibrin. These chambers are constructed from customized PLEXIGLAS® rings with internal diameter of 10 mm and have an access port drilled on the side. The two open surfaces are covered by nylon mesh (pore size 180 microns, # NY8H04700, Millipore, Mass.) glued to the rings. Fibrinogen (# 341578, CalBiochem, La Jolla, Calif.) was prepared in DMEM (# 11995-065, Gibco BRL, Rockville, Md.) at a concentration of 4 mg/ml and was converted to fibrin by addition of thrombin (#605160, CalBiochem, La Jolla, Calif.) inside the chambers.
# Fischer 344 rats were anesthetized, hair removed using the clippers and the surface was surgically prepared. Two small midline skin incisions were made in the dorsal region about 4 cm apart. Fascia was blunt dissected and small pockets were created on both sides along the midline incision. Thus, four F-ZCs were implanted per animal.
# Quantitation of Immunohistochemistry. Microvessel density (MVD) was calculated as described by Weidner (Weidner, N., et al., J Natl Cancer Inst (1992) 84(24):1875-87). Briefly, three hot spots or areas with highest visible blood vessels density (marked by the vessel marker) per sample section were selected and number of blood vessels counted at a high power field (400×). The data was then pooled for the control and treated tissues to arrive at the mean values for each group. Collagen was semi-quantitatively estimated on a scale of 0-4. Zero was described as negligible staining, 1 as weak, 2 as moderate, 3 as strong and 4 as complete staining as observed in dermis.
# D-Dimer Measurements. The MINIQUANT™ D-Dimer (Cat # 1447, Biopool AB of Umea, Sweden) assay was used to measure residual D-Dimer in the chamber content lysates generated as detailed above. […] The measurements were carried out in duplicate. Each measurement is from pooled tissue for the treatment and control groups.
# TGF β1 = TGF β1 ELISA on F-ZC tissue lysates; assay type: in vivo, Fischer 344 rats
# Protocol: as §1
# TGF β1 ELISA. Active TGF β1 ELISA was carried out in triplicate using DUOSET® kit (DY240, Genzyme Corporation, Cambridge, Mass.) as described previously (Danielpour, D., J Immunol Methods (1993) 158(1):17-25) with tissue lysates from chamber contents generated as detailed above. Latent form of […] was converted to immunoreactive form to ascertain total […] content. The data is shown as pg per mg of protein in the tissues.
# [3] = test system: wound healing response (granulation tissue, neovascularization) in F-ZC; assay: Fibrin Z-chamber (F-ZC) wound healing assay, systemic SU5416 treatment; assay type: in vivo, Fischer 344 rats; conditions: SUGEN 5416 20 mg/kg, control about 45, p=0.0009
# [4] = test system: wound healing response (granulation tissue) in fibrin-containing chambers; assay: F-ZC wound healing response with chamber administration of angiostatin; assay type: in vivo
# Protocol: FIGS. 20A and 20B are photographs showing gross examination of fibrin-containing chambers of the present invention in which angiostatin was administered in laboratory animals in accordance with techniques described herein above for Laboratory Examples 1-9. […] Fibrin is inherently pale yellow in color and lack of blood vessels in angiostatin treated chambers results in the paler appearance of the chambers.
# FIGS. 20C and 20D are photomicrographs showing depth (represented by line with arrowheads at each end) of granulation tissue developed inside fibrin-containing chambers of the present invention. Depth granulation was used as a measure for the healing response.
# Scale=depth of granulation tissue (×10 microns).
# [5] = Table 1, SU5416 vs control, n = 10
compound,measurement,setting,value
"Cc1cc(C)c(C=C2C(=O)Nc3ccccc32)[nH]1 [SU5416, 3-(2,4-Dimethylpyrrol-5-yl)methylene-2-indolinone]",body weight loss,"[1]; SUGEN 5416 20 mg/kg systemic, T-ZC implantation, vs control animals (FIG. 9), 20 mg/kg",no significant body weight loss; also recorded: no significant body weight lost
same,tumor growth delay,"[1]; SUGEN 5416 20 mg/kg systemic, T-ZC, p<0.0001 (FIG. 10)",significant tumor growth delay
same,increase in tumor volume,"[1]; SUGEN 5416 20 mg/kg systemic, T-ZC, control about 90% (FIG. 10)",40%
same,microvessel density (MVD) change,"[1]; T-ZC, SUGEN 5416 20 mg/kg, p=0.11 (FIG. 11)",did not change
same,MVD per high power (200×) focal (HPF),"[1]; T-ZC, SUGEN 5416 20 mg/kg, control about 15 (FIG. 11)",about 13
same,residual D-dimer retention,"[1]; T-ZC, SUGEN 5416 systemic vs control (FIG. 12)",more residual D-dimer retention
same,gross appearance of chambers (influx of blood vessels),"[2]; F-ZC at harvest day 12, SU5416 vs controls (FIGS. 17A, 17B)",distinctly paler color; also recorded: paler in color
same,collagen deposition (MT stain),"[2]; F-ZC granulation tissue, SU5416 20 mg/kg IP, p=0.0006, 20 mg/kg",distinctly decreased collagen deposition; also recorded: collagen was decreased
same,reduction in microvessel density vs controls,"[2]; F-ZC, SU5416 20 mg/kg IP, day 12, p=0.0009",10%
same,reduction of granulation tissue (depth) vs controls,"[2]; F-ZC, SU5416 20 mg/kg IP, day 12, p=0.0076",45%
same,granulation tissue formation,"[2]; F-ZC, SU5416 20 mg/kg vs control, listed as SUGEN 5416",inhibited granulation tissue formation
same,"decrease in collagen deposition (semi-quantitative, MT)","[2]; F-ZC, SU5416 treated vs controls",> 70%
same,residual D-dimer retention,[2]; F-ZC,remained elevated
same,residual D-dimer retention,"[2]; F-ZC, listed as SUGEN 5416",increase in residual D-dimer retention
same,neovascularization,"[2]; F-ZC, SUGEN 5416 20 mg/kg vs control",inhibited neovascularization
same,average depth of granulation tissue,"[2]; F-ZC, SUGEN 5416 20 mg/kg, magnification 10×, control about 45 mm, p=0.0076",about 25 mm
same,D-dimer levels in chambers,"[2]; F-ZC, SUGEN 5416, after 10-12 days of implantation, control about 4,000 ng/ml","about 13,000 ng/ml"
same,body weight loss,[2]; 20 mg/kg,maintained their pre-treatment weights
same,body weight loss,[2]; listed as SUGEN 5416,no significant body weight loss
same,D-Dimer,"[2]; Table 1, F-ZC tissue lysates (pooled), SU5416, control 4100 ± 100",185 ± 20 ng/mL
same,Granulation,"[2]; Table 1, F-ZC, SU5416 20 mg/kg IP, day 12, ± standard error of mean, control 466.7 ± 51.9",256.8 ± 42.9
same,Collagen,"[2]; Table 1, F-ZC, SU5416, semi-quantitative scale of 0-4, ± SEM, control 1.75 ± 0.25",0.5 ± 0.18
same,Microvessel,"[2]; Table 1, F-ZC, SU5416, ± SEM, control 28.17 ± 0.42",26.25 ± 0.53
same,"Difference, Microvessel","[2]; Table 1, SU5416 vs control","10%, p = 0.006,"
same,"Difference, D-Dimer",[2]; [5],"96%, n = 10"
same,"Difference, Collagen","[2]; Table 1, SU5416 vs control, p = 0.001","72%, p = 0.001,"
same,"Difference, Granulation","[2]; Table 1, SU5416 vs control, p = 0.006","45%, p = 0.006,"
same,reduction in active TGF β1 level,"TGF β1; F-ZC tissue, SU5416 20 mg/kg IP vs controls",90%
same,total TGF β1,"TGF β1; F-ZC tissue, SU5416 treated vs controls",increased
same,Active TGF β1,"TGF β1; Table 1, F-ZC tissue lysates, SU5416, control 1.45 ± 0.1",0.11 ± 0.05 pg per mg of protein
same,Latent TGF β1,"TGF β1; Table 1, F-ZC tissue lysates, SU5416, control 7.72 ± 0.5",11.85 ± 0.8 pg per mg of protein
same,"Difference, Active TGF β1",TGF β1; [5],"93%, n = 10"
same,"Difference, Latent TGF β1",TGF β1; [5],"35%, n = 10"
same,average MVD at 200× magnification,[3],about 30
angiostatin,healing response,[4]; 1 μM angiostatin in chamber,reduction in healing response
same,gross appearance of chambers (influx of blood vessels),"[4]; 1 μM angiostatin in chamber vs controls (FIGS. 20A, 20B)",paler in color
same,granulation tissue formation (depth),"[4]; 1 μM angiostatin in chamber vs controls (FIGS. 20C, 20D, 21)",granulation tissue in controls (FIG. 20C) is distinctly more than angiostatin treated chambers; also recorded: inhibited granulation tissue formation
